In PubChem BioAssay (NCI):
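Each compound was tested at five concentrations against cells in 96-well plates for 48 hours. GI50 = concentration required for 50% inhibition of growth. TGI is the concentration that stops growth completely.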

Tests used:
Assay in all cases: NCI-60 cell line screen, 48 h
[1] = system: A549 NSCLC
[2] = system: HS 578T breast
[3] = system: MCF7 breast
[4] = system: MDA-MB-231 breast
[5] = system: SK-MEL-5 melanoma
[6] = system: T-47D breast

| SMILES | GI50 [1] [µM] | TGI [1] [µM] | GI50 [2] [µM] | TGI [2] [µM] | GI50 [3] [µM] | TGI [3] [µM] | GI50 [4] [µM] | TGI [4] [µM] | GI50 [5] [µM] | TGI [5] [µM] | GI50 [6] [µM] | TGI [6] [µM] |
| --- | --- | --- | --- | --- | --- | --- | --- | --- | --- | --- | --- | --- |
| CCCc1cc2cc(-n3nc(C)c4c3CC(C)(C)CC4=O)cc(NC3CCC(O)CC3)c2c(=O)[nH]1 (stereo not drawn) | 0.215 | > 100 | 0.989 | > 100 | 0.0516 | > 100 | 0.192 | 3.76 | 0.241 | 3.56 | 0.0994 | > 100 |
| COc1ccc(N(CC(=O)NCCC[Te]c2ccccc2)C(=O)CCSC2=C(C)C(=O)c3ccccc3C2=O)cc1 | 0.302 | 1.07 | 1.56 | 6.69 | 0.585 | 11.3 | 1.22 | 3.46 | 1.56 | 2.96 |  |  |
| Cc1cccc2c(N=Nc3ccc(S(N)(=O)=O)cc3)c(O)[nH]c12 | > 25 | > 25 | > 25 | > 25 | > 25 | > 25 | > 25 | > 25 | > 25 | > 25 | > 25 | > 25 |
| Cc1c2c(nn1C(=O)c1nn(-c3ccc(Cl)cc3)cc1O)-c1ccccc1CC2 | 0.0343 | > 100 | 0.0201 | > 100 | 0.115 | > 100 | 1.62 | > 100 | 0.313 |  | 0.0594 | > 100 |
| N#CC(=S)Nc1ccc(Cl)c(Cl)c1 |  | > 100 | 11.3 | > 100 |  | > 73.4 |  | 43.4 |  | > 51.3 |  | > 74.8 |
| O=[N+]([O-])c1cc(CCl)ccc1CCl |  | 16.9 |  | 11.4 |  | 3.28 |  | 4.5 |  | 11.5 |  | 1.03 |
| Cc1ccc(S(=O)(=O)/N=c2\ssc(Nc3ccccc3)c2Cl)cc1 | 14.6 | > 50 |  |  |  |  | 9.84 | 26 | 6.2 | 12.4 |  |  |
| COc1ccc(-c2nn(-c3cccc(NC(=O)Nc4ccc(Cl)c(C(F)(F)F)c4)c3)cc2-c2ccncc2)cc1Cl | 1.98 | > 100 | 2.27 | 9.3 | 2.19 | 13.7 | 2.29 | 7.35 | 1.69 | 3.61 | 2.22 | > 100 |
| Nc1ncnc2c1nc(-c1ccccc1)n2C1OC(CO)C(O)C1O (stereo not drawn) |  | > 100 |  | > 100 |  | > 100 |  | > 100 |  | > 100 |  | > 100 |
| CN1CCC[C@@H]1CCO[C@](C)(c1ccccc1)c1ccc(Cl)cc1 | 7.92 | 21.7 | 12.2 | 36 | 2.98 | 11.7 | 2.79 | 13.5 | 1.54 | 2.89 | 3.29 | 16.4 |
| O=C(Nc1n[nH]c2nc(-c3ccco3)ccc12)C1CC1 | > 25 | > 25 | > 25 | > 25 | > 25 | > 25 | > 25 | > 25 | > 25 | > 25 | > 25 | > 25 |
| c1cc(OCCN2CCCCCC2)ccc1CNc1ccc2nc(CCC3CCCCC3)[nH]c2c1 | 3.05 | 11 | 1.7 | 4.94 | 1.72 | 4.12 | 1.56 | 2.97 | 1.74 | 3.17 | 1.72 | 4.79 |
| CCN(CC)CCOc1ccc(/C(=C(\C)Cc2ccc(OC)cc2)c2ccc(OC(=O)NCc3ccccc3)cc2)cc1 | 2.15 | 4.7 | 2.36 | 6.16 | 0.269 | 2.62 | 1.86 | 3.47 | 1.75 | 3.16 | 1.2 | 4.11 |
| O=C1N=C(c2ccccc2)OC1C(=O)c1ccccc1 (stereo not drawn) |  | > 100 |  | > 100 |  | > 100 |  | > 100 |  | > 100 |  | > 100 |
| O=C(Nc1nccs1)c1cc2c(cc1Cl)Sc1nccn1S2(=O)=O | 23.8 | 63.4 | 28.5 | 91.7 | 6.72 | 19.9 | 19.5 | 36.2 | 16.5 | 30 | 23.4 | 64.5 |
| O=C(O)c1ccc2c(c1Nc1ccccc1)C(=O)c1ccccc1C2=O | 51.2 | > 100 |  |  | 38.1 | > 100 | 46.2 | > 100 | 73.1 | > 100 | 45.6 | > 100 |

| SMILES | GI50 [1] [µM] | TGI [1] [µM] | GI50 [2] [µM] | TGI [2] [µM] | GI50 [3] [µM] | TGI [3] [µM] | GI50 [4] [µM] | TGI [4] [µM] | GI50 [5] [µM] | TGI [5] [µM] | GI50 [6] [µM] | TGI [6] [µM] |
| --- | --- | --- | --- | --- | --- | --- | --- | --- | --- | --- | --- | --- |
| ClCc1ccc(-c2ccc(Cn3cnc4c(Cl)nc(Cl)nc43)cc2)cc1 | 1.73 | 3.59 | 3.14 | 11.1 | 1.69 | 3.51 | 2.76 | 7.14 | 2.75 | 12.3 | 1.9 | 4.64 |
| O=C1OCc2c1cc(F)cc2[N+](=O)[O-] | > 100 | > 100 | > 100 | > 100 | > 100 | > 100 | > 100 | > 100 | > 100 | > 100 | > 100 | > 100 |
| Cn1ncc2c(/N=C/c3cccs3)[nH]c(=S)nc21 | 47.4 | > 100 | 24.9 | 77 | 27.4 | > 80.3 | 20.3 | > 67.5 | 17.9 | 39.9 | 35.9 | > 100 |
| C=C1C(=O)O[C@@H]2C(=O)[C@@H](C)[C@@H]3C=CC(=O)[C@@]3(C)[C@@H](OC(=O)/C(C)=C\C)[C@H]12 |  | 32.6 |  | > 58.8 |  | 4.93 |  | 3.6 |  | 3.13 |  | 1.68 |
| O=C(Nc1ccccc1)Nc1cccc(-n2cc(-c3ccncc3)c(-c3ccc(O)c(Cl)c3)n2)c1 | 3.64 | > 100 | 3.24 | > 100 | 2.75 | 17.8 | 1.98 | 5.23 | 1.78 | 3.35 | 4.34 | 25.8 |
| COc1ccc(/C(C)=C(\c2ccc(Cl)cc2)c2ccc(OCCN3CCCC3)cc2)cc1F | 3.01 | 7.01 | 3.77 | 9.55 | 2.41 | 6.15 | 3.56 | 6.97 | 4.1 | 7.78 | 3.3 | 7.87 |
| S=c1nc2[nH]ncc2c(N/N=C/c2ccccc2)[nH]1 | 98.3 | > 100 | > 100 | > 100 | 32 | 47 | 19.8 | 71.4 | 41.3 | > 100 |  |  |
| CCOC(=O)c1c(-c2ccccc2)[n+](=O)c2ccc(Cl)cc2n1[O-] | 8.46 | 20.6 | 4.63 | 31.8 | 5.37 | 40.6 | 3.58 | 13.8 | 1.63 | 3.33 |  |  |
| O=C(O)CC(Nc1ccccc1)C(=O)O (stereo not drawn) |  | > 100 |  | > 100 |  | > 100 |  | > 100 |  | > 100 |  | > 100 |
| C#CCN=C(N/N=C/c1ccc([N+](=O)[O-])o1)NS(=O)(=O)c1cc(C)c(Cl)cc1SCC(N)=O | 18 | 35.3 | 19.8 | 49.5 | 6.59 | 22.5 | 11.4 | 26.4 | 4.14 | 15.2 | 18.8 | 34.9 |
| COc1cc(C#N)cc(OC)c1OCCOCCOc1c(OC)cc(C#N)cc1OC | > 100 | > 100 | > 100 | > 100 | 63.4 | > 100 | 88.9 | > 100 | 69.8 | > 100 | 21.7 | > 100 |
| COc1cc(/C=C/C(=O)c2ccc(Nc3ncnc4ccccc34)cc2)cc(OC)c1 | 3.2 | 14.4 | 8.21 | 69.8 | 1.84 | 5.79 | 13.5 | 49.1 |  |  | 6.2 | 39.4 |
| COc1ccc2c(c1)CCc1c(-c3noc4c3CCc3cc(OC)ccc3-4)noc1-2 |  | > 100 |  | > 100 |  | > 100 |  | > 100 |  | > 100 |  | > 100 |
| C=C1C(=O)O[C@H]2[C@H]1CC/C(Cn1cc(Cn3ccc4ccccc43)nn1)=C\CC[C@@]1(C)O[C@@H]21 | 13.1 | 27.4 | 2.9 | 14.2 | 1.3 | 3.18 | 1.31 | 2.84 | 1.97 | 4.38 |  |  |
| Oc1ccc(CNCc2ccccc2)c2cccnc12 |  | > 100 |  | > 100 |  | > 100 |  |  |  |  |  |  |
